Key:
[1] = tested on: veratrine-evoked release of glutamate from rat brain slices; test: Inhibition of veratrine-evoked release of glutamate from rat brain slices; format: cell-based; conditions: read-out: IC50(µM) Glutamate Release (P95 limits)
Procedure: (§1) A compound of Formula (1) was tested for its effect on veratrine-evoked release of glutamate from rat brain slices according to the protocol described in Epilepsia 27(5): 490-497, 1986. The protocol for testing for inhibition of DHFR activity was a modification of that set out in Biochemical Pharmacology Vol.20 pp 561-574, 1971.
(§2) The results are given in Table 1, the IC50 being the concentration of compound to cause 50% inhibition of (a) veratrine-evoked release of glutamate and (b) of DHFR enzyme activity.

Rat Liver DHFR = target: T1, Rat Liver DHFR (Rattus norvegicus, UniProt Q920D2); test: Inhibition of DHFR enzyme activity; format: biochemical; conditions: read-out: IC50(µM) Rat Liver DHFR (P95 limits)
T1 construct: from tissue; host or cells: rat liver
T1 sequence (Q920D2 1-187): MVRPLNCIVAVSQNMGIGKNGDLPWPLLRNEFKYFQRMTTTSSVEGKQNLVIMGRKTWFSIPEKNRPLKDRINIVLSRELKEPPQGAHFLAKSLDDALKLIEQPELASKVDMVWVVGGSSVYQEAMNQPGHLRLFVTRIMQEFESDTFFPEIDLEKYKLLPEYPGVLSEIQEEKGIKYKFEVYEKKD
Procedure: as §1, §2

Nc1nnc(-c2cc(Cl)c(N)c(Cl)c2Cl)c(N)n1 [Example 1, 3,5-Diamino-6-(4-amino-2,3,5-trichlorophenyl)-1,2,4-triazine]
IC50 [1]: < 10 µM | IC50 (Rat Liver DHFR): > 100 µM

From patent EP0459829A1, “Pharmacologically active CNS compounds” (THE WELLCOME FOUNDATION LIMITED, priority 1990, dated 1991)
